Assay results from patent publication US11195594B2, “Method for selecting anticancer agent based on protein damage information of individual to prevent anticancer agent side effects” (CIPHEROME, INC., priority 2015, dated 2021).

Test: Side effect profile of pediatric leukemia patients during busulfan preconditioning for bone marrow transplantation
Format: in vivo, human
Experimental: Firstly, an analysis was conducted on 146 pediatric leukemia patients showing warning signs of serious side effects during treatment with the anticancer agent busulfan (Myleran, GlaxoSmithKline, Busulfex IV, Otsuka America Pharmaceutical, Inc.) to remove bone marrow as a preconditioning for bone marrow transplantation.

[1] = of 146 pediatric leukemia patients treated with busulfan

## CS(=O)(=O)OCCCCOS(C)(=O)=O [Busulfan]
human, in vivo
  Number of patients: AUC 170 or higher: 71
  Number of patients: Hepatic veno-occlusive disease: 18
  Number of patients: Intermediate toxicity grade 3 or higher: 11
  Number of patients: Intermediate toxicity grade 4 or higher: 1
  Number of patients: Short-term toxicity grade 3 or higher: 31
  Number of patients: Short-term toxicity grade 4 or higher: 2
[1]
  Number of patients: Death: 36
  Number of patients: Toxicity-related death: 22
